Data set [1] has as its system Rat skMC. In words: cAMP response in primary rat skeletal muscle cells.
For data set [2], the target named is T1, α1A AR (Homo sapiens, UniProt P35348).
T1 construct: host or cells: CHO-K1
T1 sequence (P35348 1-466): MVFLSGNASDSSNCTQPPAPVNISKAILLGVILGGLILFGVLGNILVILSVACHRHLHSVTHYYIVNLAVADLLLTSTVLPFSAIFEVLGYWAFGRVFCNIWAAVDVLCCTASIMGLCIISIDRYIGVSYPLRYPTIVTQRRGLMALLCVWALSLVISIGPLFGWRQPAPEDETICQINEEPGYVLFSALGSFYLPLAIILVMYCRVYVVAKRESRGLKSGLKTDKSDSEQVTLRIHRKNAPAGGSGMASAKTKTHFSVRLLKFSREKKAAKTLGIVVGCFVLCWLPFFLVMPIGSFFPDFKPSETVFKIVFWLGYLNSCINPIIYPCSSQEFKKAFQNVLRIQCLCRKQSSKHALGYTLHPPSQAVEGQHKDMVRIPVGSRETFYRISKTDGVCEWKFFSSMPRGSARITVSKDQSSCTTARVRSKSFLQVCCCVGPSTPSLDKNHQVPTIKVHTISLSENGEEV
As to the kind of experiment: Ca2+ FLIPR assay in human adrenergic Alpha1A CHO-K1 cell line (Test 1). It is filed as cell-based. The settings on record: summary in words.

Data set [3] concerns the target T2, Serotonin 5-HT2C (Homo sapiens, UniProt P28335).
T2 construct: expressed in transfected cells; host or cells: CHO-K1 coexpressing mitochondrial apoaequorin and Gα16
T2 sequence (P28335 33-458): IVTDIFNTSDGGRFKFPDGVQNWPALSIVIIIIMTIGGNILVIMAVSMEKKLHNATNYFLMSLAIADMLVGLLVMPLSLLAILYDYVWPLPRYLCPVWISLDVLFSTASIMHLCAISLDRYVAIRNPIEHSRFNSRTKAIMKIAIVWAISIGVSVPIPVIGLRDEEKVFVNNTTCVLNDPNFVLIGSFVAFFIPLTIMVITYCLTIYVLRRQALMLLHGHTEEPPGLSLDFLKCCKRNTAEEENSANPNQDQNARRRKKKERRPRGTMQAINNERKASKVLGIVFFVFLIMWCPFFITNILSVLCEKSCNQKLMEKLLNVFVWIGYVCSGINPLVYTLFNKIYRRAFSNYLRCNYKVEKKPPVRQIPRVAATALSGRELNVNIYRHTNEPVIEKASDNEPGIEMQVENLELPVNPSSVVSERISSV
As to the kind of experiment: Aequorin agonist assay in CHO-K1 cells expressing recombinant Serotonin 5-HT2Cne and Gα16. It is filed as cell-based. Conditions: for Emax: CHO-K1, percentage of the activity of the reference agonist at its EC100.

In data set [4] the target is β2 AR (Homo sapiens, UniProt P07550). As to the kind of experiment: cAMP functional assay in CHO cells stably transfected with human β2 adrenoceptor (Test 1). Conditions: for EC50: CHO cells EC50 β2 AR, cAMP, CHO cells stably transfected with human β2 adrenoceptor; for Emax: CHO, read-out: CHO cells Emax % β2 AR, cAMP, compared to isoprenaline.
β2 AR, sequence (P07550 whole entry): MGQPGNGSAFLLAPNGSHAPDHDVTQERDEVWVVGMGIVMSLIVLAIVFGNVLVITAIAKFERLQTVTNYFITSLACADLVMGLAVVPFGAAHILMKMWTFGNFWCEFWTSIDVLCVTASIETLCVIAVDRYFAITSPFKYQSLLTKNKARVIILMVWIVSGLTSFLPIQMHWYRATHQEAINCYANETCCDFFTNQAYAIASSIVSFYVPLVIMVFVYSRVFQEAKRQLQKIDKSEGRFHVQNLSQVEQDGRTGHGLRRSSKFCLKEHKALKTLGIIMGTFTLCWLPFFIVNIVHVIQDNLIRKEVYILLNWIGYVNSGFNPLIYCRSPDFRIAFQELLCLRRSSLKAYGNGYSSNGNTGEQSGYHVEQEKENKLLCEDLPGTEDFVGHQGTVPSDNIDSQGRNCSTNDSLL
Data set [5] concerns Human skMC. As to the kind of experiment: cAMP response in primary human skeletal muscle cells (differentiated skeletal myotubes). The settings on record: read-out: Primary cells; for Emax: cAMP response Emax % Human skMC; for EC50: cAMP response EC50 Human skMC, differentiated skeletal myotubes.
Data set [6] concerns rats. As to the kind of experiment: Heart rate in rats after s.c. bolus. It is filed as in vivo, Wistar Han (W-H) IGS rats. The settings on record: up to 0.3 mg/kg, Figures 3a-3c. An excerpt: Wistar Han (W-H) IGS (International Genetic Standard) rats (Crl:WI(Han)) were purchased from Charles River Laboratories. Femoral arterial and venous catheters were chronically implanted and exteriorized through a spring tether-swivel system and housed in specialized cages. Arterial catheter was connected to a pressure transducer to continuously measure pulse pressure, mean arterial pressure and heart rate, which was derived from the blood pressure signal, via a digital data acquisition system. Compounds were administered via s.c catheter implanted through the skin buttun. Values are expressed as means ± SEM (n=3).

Data set [7] deals with Rhesus monkeys. In words: Heart rate in rhesus monkeys after single s.c. administration. It is filed as in vivo. The settings on record: s.c. bolus, up to 0.03 mg/kg, Figures 4a, 4b. The procedure:
Rhesus monkeys, 24 females with body weight around 4 to 8 kg, were randomized into 4 groups of n=6. The animals were restrained on a chair up to 4 hours after single subcutaneous administration of compounds, and then returned to their pens. Heart rates were measured using a Surgivet V3304 device. Values are expressed as means ± SEM (n=6).

In data set [8] the test system is isolated Langendorff perfused rabbit hearts. As to the kind of experiment: Automaticity in isolated Langendorff perfused rabbit hearts.
Data set [9] addresses Adrenergic beta1 (Cavia porcellus, UniProt H0W3H1). As to the kind of experiment: Left atrium contraction assay (Ricerca, Adrenergic beta1). The arrangement: species or system Dunkin Hartley Guinea pig.
Data set [10] in a line: Steady state plasma concentration in the rat minipump study. Type of data set: in vivo, Male Wistar Han IGS rats. Conditions: rats. The procedure: Rats were acclimated to the facility for 7 days. […] Food and water were provided ad libitum. […] Body weights were measured twice per week. […] Brain weight was used for normalization of organ weights. Results are expressed as mean +/-SEM.

Data set [11] in a line: Comparative solubility in H2O with pH adjustment by HCl or NaOH. The settings on record: water, read-out: solubility in H2O, Conc. Type of data set: physicochemical. The procedure:
The relative solubilities of the free base form and the acetate and glycolate salt forms of Compound A were analysed and the results are show in the table below. Solutions were titrated with addition of HCl or NaOH for pH adjustment. The improved aqueous solubilities of the acetate and glycolate salt forms relative to the free base form of Compound A make the acetate and glycolate salts of Compound A more suitable for subcutaneous injection or infusion.

Data set [12] addresses β1 AR (Homo sapiens, UniProt P08588). In words: cAMP functional assay in CHO cells stably transfected with human β1 adrenoceptor (Test 1). Conditions: for Emax: CHO, read-out: CHO cells Emax % β1 AR.
The target of data set [13] is T3, human 5-HT2C receptor (Homo sapiens, UniProt P28335).
T3 construct: purchased Biosignal Packard, USA; host or cells: CHO cell membranes
T3 sequence (P28335 33-458): T2 sequence (P28335 33-458)
In words: 3H-Mesulergine binding to hr5-HT2C CHO cell membranes. The settings on record: 3H-Mesulergine 1 nM, kind of constant not stated. The procedure: Non-specific binding is evaluated in the presence of 1 µM Mesulergine. Fifty µL each of membrane, ligand and compound in a total volume of 250 µL are incubated in 96-well plates for 60 min at 22° C in a buffer containing 50 mM Tris, 0.1% ascorbic acid, 10 µM Pargyline, pH 7.7. The plates are filtrated, washed 3 times in ice-cold 50 mM Tris, dred and measured in Topcount.

In data set [14] the test system is skeletal muscle and heart. Conditions: rats.
For data set [15], the system named is Sino-Atrial node. In words: Sino-Atrial node beating rate in isolated rabbit right atrium. The arrangement: species or system New Zealand white female rabbits. The settings on record: n=6.
For data set [16], the system named is Rat cardiomyocytes. In words: cAMP response in primary rat cardiomyocytes. The settings on record: Cardiomyocyte.
[17] abbreviates: Homo sapiens, Myotube, compared to formoterol.

Experimental findings from patent publication EP2890687B1, “SALTS OF BENZOTHIAZOLONE COMPOUND AS BETA-2-ADRENOCEPTOR AGONIST” (priority 2012, dated 2014) are described below.

Molecules are shown by their SMILES. Values after ≈ are worked out from the molar mass of the structure shown. Where two headings read alike, the source gives them in different places.

β1 AR, sequence (P08588 whole entry): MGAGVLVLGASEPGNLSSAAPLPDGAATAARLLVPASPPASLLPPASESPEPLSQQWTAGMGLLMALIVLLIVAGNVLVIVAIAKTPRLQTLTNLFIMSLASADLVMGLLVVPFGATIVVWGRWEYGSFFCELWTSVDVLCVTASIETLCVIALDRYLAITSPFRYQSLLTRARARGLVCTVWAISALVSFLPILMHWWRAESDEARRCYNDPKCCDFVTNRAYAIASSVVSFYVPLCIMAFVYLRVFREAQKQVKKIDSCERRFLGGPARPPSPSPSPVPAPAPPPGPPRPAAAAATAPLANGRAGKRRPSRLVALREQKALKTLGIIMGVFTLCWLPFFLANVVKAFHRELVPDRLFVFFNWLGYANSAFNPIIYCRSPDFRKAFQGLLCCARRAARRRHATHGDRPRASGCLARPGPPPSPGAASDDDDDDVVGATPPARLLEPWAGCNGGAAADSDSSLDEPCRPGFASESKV
Adrenergic beta1, sequence (H0W3H1 1-470): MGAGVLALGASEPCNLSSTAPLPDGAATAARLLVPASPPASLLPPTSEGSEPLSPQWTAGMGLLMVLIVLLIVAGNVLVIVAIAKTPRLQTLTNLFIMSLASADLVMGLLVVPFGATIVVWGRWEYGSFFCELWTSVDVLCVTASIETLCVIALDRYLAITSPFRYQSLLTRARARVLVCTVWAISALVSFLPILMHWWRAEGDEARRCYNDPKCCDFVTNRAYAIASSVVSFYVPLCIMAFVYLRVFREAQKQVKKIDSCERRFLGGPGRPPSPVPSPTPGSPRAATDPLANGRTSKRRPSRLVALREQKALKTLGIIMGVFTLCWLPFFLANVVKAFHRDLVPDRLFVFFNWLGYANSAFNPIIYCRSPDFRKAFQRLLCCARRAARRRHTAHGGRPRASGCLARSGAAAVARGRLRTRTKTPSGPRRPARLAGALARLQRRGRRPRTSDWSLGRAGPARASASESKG

As for `CCCCOc1ccc(CC(C)(C)NC[C@H](O)c2cc(O)cc3[nH]c(=O)sc23)cc1` [Compound A, (R)-7-(2-(1-(4-butoxyphenyl)-2-methylpropan-2-ylamino)-1-hydroxyethyl)-5-hydroxybenzo[d]thiazol-2(3H)-one], the EC50 in [1] (Myotube, read-out: Primary cells, cAMP response EC50 Rat skMC) is 3.4 nM; in data set [3] (agonist mode, aequorin luminescence) it was 280 nM; in [4], 5.6 nM; in data set [5] (listed as Compound A (R)), 0.7 nM; in data set [9] (guinea pig left atria, n=2), greater than 10000 nM; in data set [12] it was 560 nM. Also, the EC50 in [16] (read-out: Primary cells, cAMP response EC50 Rat cardiomyocytes) was 5.7 nM. For the same molecule, the Emax in data set [1] (read-out: Primary cells, cAMP response Emax % Rat skMC) came out at 98%; in data set [3], 83%; in data set [4], 88%; in data set [5] (setting [17]), 96%; in data set [12] it was 32%; in data set [16] (read-out: Primary cells, cAMP response Emax % Rat cardiomyocytes) it was 71%. Also, in data set [2], the “activity on α1A AR” value is “no activity”. Also, the “fold less active on 5-HT2C compared to the racemate or the (S) enantiomer” value in data set [3] is given as “over 10 fold”. The “fold less active on 5-HT2C compared to β2 AR agonist activity” value in [3] (5-HT2C EC50 versus β2 AR EC50 (5.6 nM)) amounted to 50 fold. Moreover, the figures for the heart rate change entry in data set [6] and in data set [7] were “less heart rate increases compared to formoterol” and “less heart rate increase compared to formoterol”, respectively. Further, the “effects on the pacemaker activity” value in [8] (compared to Formoterol, Figures 2a, 2b) is “less direct effects”. In addition, in [8] (isolated rabbit heart, n=3), the “Automaticity, maximum increase” value is on record as “+17%”. In addition, in [9] (up to 10 µM), the “effects on left atrium contraction” value is on record as “no effects”. The “steady state plasma concentration” value in [10] (0.01 mg/kg/day s.c. minipump) is recorded as ~ 0.2 nM. Moreover, the steady state concentration in data set [10] (0.1 mg/kg/day s.c. minipump) is reported as ~ 2 nM. In addition, the solubility in data set [11] (aqueous buffer, pH 7.0) is 50 µg/mL (≈ 116 µM); in [11] (pH 6.2, aqueous buffer) it was 270 µg/mL (≈ 627 µM); in data set [11] (pH 7.3, aqueous buffer), less than 10 µg/mL; in [11] (pH 7.8, aqueous buffer) it was less than 10 µg/mL. Further, in data set [12] (summary in words), the “intrinsic efficacy on β1 AR” value is “very low intrinsic efficacy”. Besides, the “Serotonin 5-HT2C Binding” value in data set [13] was 11 µM. In data set [14] (0.01 mg/kg/day s.c. minipump, 28 days, significant), this molecule returned a skeletal muscle hypertrophy of 11%. In data set [14] (even at 0.1 mg/kg/day s.c. minipump, 28 days), the heart histopathology result is on record as “no findings”. Also, the “skeletal muscle mass and heart mass increase (Figure 1)” value in data set [14] (s.c. minipump 28 days, formoterol 0.003-0.03, Compound A 0.01-0.1 mg/kg/day) is listed as “induces skeletal muscle hypertrophy with minimum impact on heart mass”. Besides, the “Sino-Atrial node beating rate, maximum increase” value in [15] is “+6.2%”.

For the molecule `CC(=O)O.CCCCOc1ccc(CC(C)(C)NC[C@H](O)c2cc(O)cc3[nH]c(=O)sc23)cc1` [Compound A (R) acetate salt, (R)-7-(2-(1-(4-butoxyphenyl)-2-methylpropan-2-ylamino)-1-hydroxyethyl)-5-hydroxybenzo[d]thiazol-2(3H)-one acetate salt], the values for the EC50 in data set [4] and in data set [5] (acetate salt) were 2.5 nM and 1.7 nM, respectively. In addition, the Emax in data set [5] (Homo sapiens, Myotube, compared to isoprenaline) is 93%. Besides, the solubility in data set [11] (aqueous buffer, pH 6.0) came out at 1110 µg/mL; in data set [11] (pH 5.9, aqueous buffer), 1330 µg/mL; in data set [11] (pH 6.1, aqueous buffer) it was 1100 µg/mL; in data set [11] (pH 6.2, aqueous buffer), 550 µg/mL.

With `CCCCOc1ccc(CC(C)(C)NC[C@@H](O)c2cc(O)cc3[nH]c(=O)sc23)cc1` [Compound B], the Emax in data set [3] amounted to 99%; in [4], 83%; in data set [5] (setting [17]) it was 100%. Moreover, the EC50 in data set [5] (Homo sapiens, Myotube) is 280 nM. The “Serotonin 5-HT2C Binding” value in data set [13] is 0.8 µM.

Turning to `CCCCOc1ccc(CC(C)(C)NCC(O)c2cc(O)cc3[nH]c(=O)sc23)cc1` (racemic) [Compound A/B], the Emax in data set [3] came out at 113%; in data set [4], 87%; in data set [5] (setting [17]) it was 100%; in data set [12], 38%. The EC50 in [5] (Homo sapiens, Myotube) amounted to 0.63 nM. For the same molecule, in data set [13], the “Serotonin 5-HT2C Binding” value was determined as 1.7 µM.

For the molecule `CCCCOc1ccc(CC(C)(C)NC[C@H](O)c2cc(O)cc3[nH]c(=O)sc23)cc1.O=C(O)CO` [Compound A glycolate salt, (R)-7-(2-(1-(4-butoxyphenyl)-2-methylpropan-2-ylamino)-1-hydroxyethyl)-5-hydroxybenzo[d]thiazol-2(3H)-one glycolate salt], the solubility in data set [11] (pH 5.1, aqueous buffer) is 13100 µg/mL; in data set [11] (pH 5.3, aqueous buffer), 6390 µg/mL; in [11] (pH 5.4, aqueous buffer) it was 4470 µg/mL.

By solubility is commonly meant how much of the substance goes into solution per volume.
